The structures appear in SMILES notation. Non-standard residues stand in square brackets, D forms with d. Residues, ends and D or L forms follow the SMILES beside them.

As for `CNC(=S)NCCCCC(NC(=O)C(CC(=O)N1CCOCC1)Cc1cccc2ccccc12)C(=O)NC(CC1CCCCC1)C(O)CC(=O)NCCN1CCOCC1` (stereo not given), the logP (commonly the decadic logarithm of the partition coefficient of the neutral form, usually between octanol and water) worked out at 1.68.

With `COC(=O)c1ccccc1S(=O)(=O)NC(=O)Nc1nc(C)nc(OC)n1`, the logP worked out at 2.2.

The compound `CCON1C(=O)CC2(CCCC2)C1=O` showed a logP of 1.26.

In the case of `O=C(O)Cc1cc(O)ccc1O`, the logP came to 0.86.

`Cc1nnc(C(C)(C)C)c(=O)n1N` showed a logP of 1.03.

`CCOC(=O)CN(C(=O)CCl)c1ccccc1OC(C)C` displayed a log partition coefficient (logP) of 2.75.

Regarding `CNC(=S)NCCCCc1nc[nH]c1C`, the log partition coefficient (logP) was determined as 0.85.

For `CC(=O)N[C@H](Cc1ccccc1)C(=O)N[C@H](Cc1ccccc1)C(N)=O` (Ac-[dF]-[dF]-NH2), the logP came to 1.19.

`CC1CCCC2C1N2CC(O)Cn1ccnc1` (stereo not given) returned a lipophilicity (logP) of 1.55.

With `Nc1cccc(S(=O)(=O)[O-])c1.[Na+]`, the logP was -3.4.

The compound `CC1=C(C)C(=O)C(Cc2cccnc2)=C(C)C1=O` showed a logP of 2.55.

In turn, `CC(C)Oc1ccc(OCC(OC(=O)n2ccnc2)C(C)(C)C)cc1` (stereo not given) showed a logP of 4.08.

`C=C1C(=O)OC2C1CCC(C)C1(O)CCC(=O)C21C` (stereo not given) showed a logP of 0.83.

In turn, `CCCCn1ccc(=O)c(O)c1CC` yielded a logP of 1.22.

Consider `CC(=O)NC(CO)C(N)=O` (stereo not given), for which the logP is -1.87.

Consider `COC(=O)NC1=NCC(c2ccc(C=O)cc2)N1C` (stereo not given), for which the logP was found to be 0.74.

As for `CCOC(=O)CCCO`, the logP was 0.43.

`COc1cc(C(N)=O)ccc1-c1nc2ccncc2[nH]1` yielded a logP of 1.18.

Consider `OCC1OC(O)C(O)C(O)C1O` (stereo not given), for which the logP was -3.24.

As for `NCCCCN`, the logP is -0.7.

On to `CN[C@@H](C)[C@H](O)c1ccccc1.Cl`, for which the logP was -2.45.

As to `CCCN1CCOC2c3cc(O)ccc3OCC21` (stereo not given), the logP amounted to 1.97.

On to `CC(=O)N1c2ccc(C)cc2C2CN(C)CCC21` (stereo not given), for which the logP was determined as 1.25.

Compound `NS(=O)(=O)c1cc2c(cc1C(F)(F)C(F)(F)F)N=CNS2(=O)=O` came in with a logP of 1.05.

For the compound `CC(=O)OCC1=C(C(=O)O)N2C(=O)[C@@H](NC(=O)CSc3ccncc3)[C@H]2SC1`, the logP was -1.15.

`Clc1cccc(Cl)c1Cl` yielded a logP of 4.05.

For the compound `O=C(OCn1c(=O)[nH]cc(F)c1=O)Oc1ccccc1`, the logP came out at 1.11.

Consider `O=C(Cc1nc(I)c([N+](=O)[O-])[nH]1)NCc1cccnc1`, for which the logP was 0.88.

Consider `Cc1ccc(C(=O)CCN2CCCCC2)cc1`, for which the logP worked out at 3.55.

`NS(=O)(=O)c1cc2c(cc1[N+](=O)[O-])N=CNS2(=O)=O`: the logP stood at 0.08.

Turning to `OCCN(CCO)CCCc1ccc(CSc2ccccc2)cc1`, the logP was 3.31.

Compound `O=C(Cc1cccnc1)NN1CC=CCC1` returned a logP of 0.05.

Compound `CCOC(=O)c1cnc2n(c1=O)CCCC2` gave a logP of 0.15. This logP and that of the compound before are within 0.2 log units of each other.

`N#Cc1cccnc1` showed a logP of 0.36.

`CCN(CC)C(=O)Nc1ccc(OCC(O)CNC(C)(C)C)c(C(C)=O)c1` (stereo not given): the logP amounted to 1.92.

`CC(C)(C)C(COc1ccc(Br)cc1)OC(=O)n1ccnc1` (stereo not given): the lipophilicity (logP) amounted to 4.37.

Take `COC(=O)NC1=NCC(c2ccccc2F)N1C` (stereo not given): the logP worked out at 1.53.

For the compound `CCC(=O)OCOC(=O)c1cn(CC)c2nc(C)ccc2c1=O`, the logP was 1.7.

`Cc1cc(O)ccc1O` had a log partition coefficient (logP) of 0.91.

`CC1(C)S[C@@H]2[C@H](NC(=O)[C@H](N)c3ccccc3)C(=O)N2[C@H]1C(=O)O` had a logP of 1.35.

`Cc1onc(-c2ccccc2Cl)c1C(=O)NC1C(=O)N2C1S(=O)C(C)(C)C2C(=O)O` (stereo not given) displayed a logP of 2.

The compound `CNC(=O)NCCCn1nc(-c2ccccc2)ccc1=O` had a logP of 1.16.

Turning to `COC(=O)c1c(C)[nH]c(-c2cc(Cl)ccn2)c1C(=O)OC`, the logP was 2.63.

On to `Cc1c(O)ccc(O)c1C`, for which the logP stood at 1.36.

For `CCCCSc1nnc(C(C)C)c(=O)n1N`, the lipophilicity (logP) stood at 3.21.

Compound `CNC(=O)Oc1cc(C)ccc1C(C)C` registered a log partition coefficient (logP) of 2.84.

For `Clc1cc(Cl)cc(-c2cc(Cl)cc(Cl)c2)c1`, the logP was found to be 6.6.

Compound `NS(=O)(=O)c1cc2c(cc1C(F)(F)F)NC=NS2(=O)=O` yielded a logP of 0.32.

Consider `O=C1C[N+]([O-])=C(c2ccccc2)c2cc(Cl)ccc2N1CCO`, for which the logP was 0.82.

`CNc1nc(C)c(C(=O)CCN2CCCCC2)s1` showed a logP of 2.21.

Compound `Nc1ccc(C(=O)O)cc1I` displayed a lipophilicity (logP) of 2.36.

Compound `CC(C)(C)OC(=O)C(C(=O)OC(C)(C)C)=C1SCCS1` registered a logP of 4.01.

Compound `CCc1c(O)c(=O)ccn1C(C)C` returned a logP of 0.73.

With `CCOP(=O)(O)Cc1ccc(F)cc1`, the logP came out at 1.25.

In turn, `CCOC(=O)NC1=NCC(c2ccc(F)cc2)N1C` (stereo not given) gave a logP of 1.9.

Consider `CCc1c(C)nc2cccc(C)n2c1=O`, for which the logP came out at 1.86.

As for `CC(C)(C)C(COc1ccccc1)OC(=O)n1ccnc1` (stereo not given), the logP is 3.58.

`CSc1nnc(-c2cc(Cl)cc(Cl)c2)c(=O)n1N` registered a logP of 3.02.

In the case of `CCOP(=O)(OCC)Oc1ccc([N+](=O)[O-])cc1`, the logP stood at 1.98.

In turn, `CCC(C(=O)OCc1ccccc1)C(COC(=O)Cc1ccccc1)Cc1cncn1C` (stereo not given) showed a logP of 4.

Regarding `CNC12CCCCC1CC(O)c1ccccc12` (stereo not given), the logP was 1.84.

`CN(C)C(=O)OCc1ccc(C(N)=O)cc1` yielded a log partition coefficient (logP) of 0.77.

In turn, `Clc1ccccc1` showed a logP of 2.84.

With `Clc1ccc(-c2ccc(Cl)c(Cl)c2Cl)cc1Cl`, the logP was 6.79.

For the compound `NS(=O)(=O)c1cc2c(cc1F)N=CNS2(=O)=O`, the logP is -0.29.

In turn, `CN(C)C=C1OC(=O)C(C#N)=C1c1ccccc1` had a logP of 1.07.

In turn, `c1cc(CN2CCCCC2)cc(OCCCNc2nc3ccccc3s2)c1` had a logP of 5.41.

Compound `CC(=O)n1cc(CC(NC(=O)CC2NC(=O)C3C4CCC(CC4)N3C2=O)C(=O)NC(Cc2ccccc2)C(=O)N(C)Cc2ccccc2)c2ccccc21` (stereo not given) yielded a logP of 3.69.

The compound `OCCN(CCO)Cc1cccc(COc2ccccc2)c1` had a logP of 2.33.

Regarding `O=C(O)CCCCCOc1cccc2ccccc12`, the logP was 4.5.

Compound `CCc1c(O)c(=O)ccn1CCOC` displayed a logP of 0.04.

In turn, `COc1ncnc2c1ncn2C1OC(CO)C(OC(=O)C(C)(C)C)C1OC(=O)C(C)(C)C` (stereo not given) showed a logP of 3.61.

In turn, `CCC(C(=O)OCCc1ccccc1)C(CO)Cc1cncn1C` (stereo not given) yielded a logP of 2.31.

In turn, `CC(CCC(=O)NCc1ccccc1)C1CCC2C3C(O)CC4CC(O)CCC4(C)C3CC(O)C12C` (stereo not given) registered a logP of 3.54.

`CCC(=O)n1c(=O)[nH]cc(F)c1=O`: the logP was determined as 0.19.

In the case of `COc1ccc(OCC(OC(=S)n2ccnc2)C(C)(C)C)cc1` (stereo not given), the logP worked out at 4.31.

`CC(=O)Nc1cc(C(C)(C)C)c(O)cc1C`: the log partition coefficient (logP) came to 2.18.

In turn, `CCn1cc(C(=O)O)c(=O)c2cc3c(cc21)OCO3` yielded a logP of 0.94.

`O=C(O)c1cccc(Cl)n1` yielded a logP of 1.5.

Turning to `COc1c(O)ccc(O)c1OC`, the logP amounted to 0.61.

`CC1CCCc2ncc(C(N)=O)c(=O)n21` (stereo not given) registered a logP of 0.04.

Regarding `CCCc1ccc(OCC(OC(=O)n2ccnc2)C(C)(C)C)cc1` (stereo not given), the logP was determined as 4.73.

For `Cc1ccc(Cc2cnc(NCCCCc3ncc(Br)cc3C)[nH]c2=O)cn1`, the log partition coefficient (logP) amounted to 3.57.

As for `CCCCNC(=O)CCn1ccc(=O)c(O)c1C`, the logP is -0.1.

For `COc1ccc(Cn2cc(F)c(=O)[nH]c2=O)cc1`, the logP was determined as 1.04.

Regarding `CC(C)(C)C(COc1ccc(C#N)cc1)OC(=O)n1ccnc1` (stereo not given), the logP was determined as 3.15.

Turning to `CCCC(=O)n1c(=O)[nH]cc(F)c1=O`, the logP was found to be 0.67.

Consider `CC(=O)Nc1ccc2c(c1)S(=O)(=O)c1ccc(C)cc1C2=O`, for which the logP was 2.76.

In turn, `CC1c2nc3ccccc3c(=O)n2CN1c1ccccc1` (stereo not given) yielded a lipophilicity (logP) of 1.79.

With `CCC(CC)COC(N)=O`, the logP came out at 1.98.

As to `COCN(C#N)C1CC(OC2CC(O)(C(C)=O)Cc3c(O)c4c(c(O)c32)C(=O)c2c(OC)cccc2C4=O)OC(C)C1O` (stereo not given), the logP was 2.64.

In the case of `C[C@]12CCC(=O)C=C1CC[C@@H]1[C@@H]2CC[C@@]2(C)[C@H]1CC[C@]2(O)C(=O)CO`, the logP worked out at 3.08.

For the compound `CCCOC(=O)n1c(NC(=O)OC)nc2cc(C(=O)c3ccccc3)ccc21`, the logP was 3.43.

Turning to `CCOC(=O)c1ccc(OCC(OC(=O)n2ccnc2)C(C)(C)C)cc1` (stereo not given), the logP amounted to 4.12.

`C[C@H](CN1CCOCC1)C(C(=O)N1CCCC1)(c1ccccc1)c1ccccc1` gave a logP of 3.61.

Consider `NCC1(CC(=O)O)CCCCC1`, for which the logP is -1.1.

In turn, `COc1ccc(C(=O)OCC2OC(n3cc(I)c(=O)[nH]c3=O)CC2O)cc1` (stereo not given) had a logP of 1.38.

As to `CCCN(C)C(=O)c1cccc(Oc2ccccc2)c1`, the logP worked out at 3.44.

On to `Cc1nc(N)sc1C(=O)CCN1CCCC1`, for which the lipophilicity (logP) is 1.74.

Compound `CCOC(=O)NC1=NCC(c2cccc(C)c2C)N1C` (stereo not given) returned a logP of 2.57.

Regarding `CCN(C)C(=O)c1cccc(Oc2ccccc2)c1`, the lipophilicity (logP) was found to be 2.98.

`NCc1ccccc1Sc1ccccc1CO` returned a logP of 2.39.

For the compound `CC(C)c1ccc(OCC(OC(=S)n2ccnc2)C(C)(C)C)cc1` (stereo not given), the logP was 5.21.

Turning to `Cc1ccc(OCC(OC(=S)n2ccnc2)C(C)(C)C)cc1` (stereo not given), the logP worked out at 4.66.

As for `CNC(=C[N+](=O)[O-])NCCSCc1nc[nH]c1C`, the logP is -0.4.

Take `O=c1[nH]c(=O)n(C2OC(CO)CC2F)cc1F` (stereo not given): the logP is -0.72.

`O=C(O)CCCOc1cccc2ccccc12` showed a logP of 3.5.

Take `CC(=O)O.CCCCCCCCCCCCNC(=N)N`: the logP is 1.15.

In the case of `CCNP(=O)(OCC)ON=C(C#N)c1ccc(OC)cc1` (stereo not given), the logP worked out at 2.39.

For `NC1C2CCC1c1cccc(C(F)(F)F)c1C2` (stereo not given), the logP came out at 3.65.

The compound `O=C(O)CCCC(=O)c1ccccc1` showed a logP of 1.49.

As for `COC(=O)n1cc(CC(NC(=O)CC2NC(=O)C3C4CCC(CC4)N3C2=O)C(=O)NC(Cc2ccccc2)C(=O)N(C)Cc2ccccc2)c2ccccc21` (stereo not given), the logP turned out to be 4.05.

With `CCCCCCCS[C@@H]1O[C@H](CO)[C@H](O)[C@H](O)[C@H]1O`, the logP was found to be 1.5.

As to `Cc1cccc(C(N)=O)c1O`, the logP was determined as 2.12.

For `CCNP(=O)(OCC)ON=C(C#N)c1ccc([N+](=O)[O-])cc1` (stereo not given), the logP came to 1.76.
